68 compounds from paper doi:10.1101/2021.10.07.463234v2 (biorxiv, 2021) can be followed below.

Structures are written as SMILES. Where a name gives a salt, the structure may show the parent alone.

In one test the target is SARS-CoV-2 Mac1 (Severe acute respiratory syndrome coronavirus 2, UniProt P0DTD1). As to the kind of experiment: biochemical. The conditions noted are these: 100 µM; inhibitor.
A word on the %inhibition: it is the share of the control response that was lost under treatment. High values mean a response far below the control, low ones a response near the control. For the compound `O=C(O)/C=C/c1ccc(Cn2ccnc2)cc1` [Ozagrel sodium], the “%inhibition” value worked out at 1.667%.
Same read-out and setting: the figure for `NCc1ccc(S(N)(=O)=O)cc1` [Mafenide hydrochloride] is 8.456%; for `COc1cc2nccc(Oc3ccc(NC(=O)NC4CC4)c(Cl)c3)c2cc1C(N)=O` [Lenvatinib (E7080)] it is 22.86%; for `CN1[C@@H]2CCC[C@H]1C[C@@H](NC(=O)c1nn(C)c3ccccc13)C2` [Granisetron] it is 0.5264%.
The same measure, in the same setting: the figure for `CS(=O)(=O)CCNCc1ccc(-c2ccc3ncnc(Nc4ccc(OCc5cccc(F)c5)c(Cl)c4)c3c2)o1` [Lapatinib] is 0%; for `CCN(CC)Cc1cc(Nc2ccnc3cc(Cl)ccc23)ccc1O` [Amodiaquine hydrochloride] it is 7.946%.
The same measure, in the same setting: the same measure for `Cc1ccc(Nc2nccc(N(C)c3ccc4c(C)n(C)nc4c3)n2)cc1S(N)(=O)=O` [Pazopanib HCl (GW786034 HCl)]: 31.56%.
With `CN(Cc1cnc2nc(N)nc(N)c2n1)c1ccc(C(=O)N[C@@H](CCC(=O)O)C(=O)O)cc1` [Methotrexate disodium], the “%inhibition” value is given as 0%.

The same test, now with this note: read-out: %inhibition.
As a reminder, the inhibition is the relative decrease from the control value, in per cent. As to `CN(C)[C@@H]1C(O)=C(C(N)=O)C(=O)[C@@]2(O)C(O)=C3C(=O)c4c(O)cccc4[C@@](C)(O)[C@H]3[C@H](O)[C@@H]12` [Oxytetracycline Dihydrate], the inhibition at 100 µM was 0%.
The same measure, in the same setting: the figure for `N=C(N)c1ccc(OCCCCCOc2ccc(C(=N)N)cc2)cc1` [Pentamidine isethionate] is 0%; for `Oc1c(Cl)cc(Cl)c2cccnc12` [Chloroxine] it is 10.2%.
On the same count and under the same terms, the figure for `O=c1[nH]c(=O)n(C2CCCO2)cc1F` (centres unmarked) [Tegafur (FT-207, NSC 148958)] is 0%; for `CCCCCCCCCCCCCCCCOP(=O)([O-])OCC[N+](C)(C)C` [Miltefosine] it is 0%.
Still for that read-out and setting: the figure for `CC1(COc2ccc3c(c2)ncn3-c2ccc3cccc(N4CCC(N)CC4)c3n2)COC1` [Crenolanib (CP-868596)] is 0%; for `COCC1=C(C(=O)OC(C)OC(=O)OC(C)C)N2C(=O)[C@@H](NC(=O)/C(=N\OC)c3csc(N)n3)[C@H]2SC1` (some centres unmarked) [Cefpodoxime proxetil] it is 13.2%; for `N[C@@H](CC(=O)N1CCn2c(nnc2C(F)(F)F)C1)Cc1cc(F)c(F)cc1F` [Sitagliptin] it is 0%.
For the compound `OC[C@@H](O)[C@H](O)[C@@H](O)CO` [Xylitol], the inhibition at 100 µM is 0%.
On the same count and under the same terms, the same measure for `CCc1cc2c(cc1N1CCC(N3CCOCC3)CC1)C(C)(C)c1[nH]c3cc(C#N)ccc3c1C2=O` [Alectinib hydrochloride]: 9.69%; for `O=c1[nH]c(=O)n([C@H]2C[C@H](O)[C@@H](CO)O2)cc1F` [Floxuridine]: 0%; for `c1ccc(C2CN3CCSC3=N2)cc1` (centres unmarked) [Tetramisole HCl]: 0%.
On the same count and under the same terms, the figure for `NS(=O)(=O)c1cc2c(cc1Cl)N=C(CSCc1ccccc1)NS2(=O)=O` [Benzthiazide] is 0%; for `CN(C)[C@@H]1C(=O)C(C(N)=O)=C(O)[C@@]2(O)C(=O)C3=C(O)c4c(O)cccc4[C@@](C)(O)C3[C@H](O)C12` (some centres unmarked) [Oxytetracycline (Terramycin)] it is 15.9%.
On the same count and under the same terms, the same measure for `COc1cc2c(Oc3ccc4[nH]c(C)cc4c3F)ncnc2cc1OCCCN1CCCC1` [Cediranib (AZD2171)]: 51.1%; for `Cc1onc(-c2ccccc2Cl)c1C(=O)N[C@@H]1C(=O)N2[C@@H]1SC(C)(C)[C@@H]2C(=O)O` [Cloxacillin Sodium]: 9.79%.
`CC[N+](CC)(CC)CCOc1cccc(OCC[N+](CC)(CC)CC)c1OCC[N+](CC)(CC)CC` [Gallamine Triethiodide]: the inhibition at 100 µM was determined as 3.8%.
On the same count and under the same terms, the figure for `CCC(NC(C)C)C(O)c1ccc(O)c(O)c1` (centres unmarked) [Isoetharine Mesylate] is 17.6%.
On the same count and under the same terms, the same measure for `CC(C)=CCC/C(C)=C/CC/C(C)=C/CCC(=O)OC/C=C(\C)CCC=C(C)C` [Gefarnate]: 5.96%; for `C#C[C@]1(O)CC[C@H]2[C@@H]3CCc4cc(OC5CCCC5)ccc4[C@H]3CC[C@@]21C` [Quinestrol]: 0%; for `COc1cc(S(=O)(=O)O)ccc1O` [Sulfogaiacol]: 0%.
On the same count and under the same terms, the figure for `C=C(c1ccc(C(=O)O)cc1)c1cc2c(cc1C)C(C)(C)CCC2(C)C` [Bexarotene] is 0%; for `O=S(=O)(O)CCCS(=O)(=O)O` [Eprodisate disodium] it is 0%.
In the case of `CC1(C)NC(=O)N(c2ccc([N+](=O)[O-])c(C(F)(F)F)c2)C1=O` [Nilutamide], the inhibition at 100 µM was determined as 3.89%.
The same measure, in the same setting: the figure for `NC(=O)CN1CC(O)CC1=O` (centres unmarked) [Oxiracetam] is 21.6%; for `CCc1nn(CCCN2CCN(c3cccc(Cl)c3)CC2)c(=O)n1CCOc1ccccc1` [Nefazodone hydrochloride] it is 14%.
Same read-out and setting: the figure for `CN1CC[C@H](c2c(O)cc(O)c3c(=O)cc(-c4ccccc4Cl)oc23)[C@H](O)C1` [Flavopiridol (Alvocidib)] is 50.4%.
Same read-out and setting: the figure for `CCCCC(=O)O[C@H]1CC[C@H]2[C@@H]3CCc4cc(O)ccc4[C@H]3CC[C@]12C` [Estradiol valerate] is 3.33%; for `O=C(/C=C\n1cnc(-c2cc(C(F)(F)F)cc(C(F)(F)F)c2)n1)NNc1cnccn1` [Selinexor (KPT-330)] it is 0%; for `NS(=O)(=O)NCCNc1nonc1/C(=N/O)Nc1ccc(F)c(Br)c1` [Epacadostat (INCB024360)] it is 14.8%.
For the compound `Cc1c(C(N)=O)cc([N+](=O)[O-])cc1[N+](=O)[O-]` [Dinitolmide], the inhibition at 100 µM was 6.05%.
Take `CCC[C@H](N[C@@H](C)C(=O)N1[C@H](C(=O)O)C[C@@H]2CCCC[C@@H]21)C(=O)OCC` [Perindopril Erbumine]: the inhibition at 100 µM amounted to 5.79%.
On the same count and under the same terms, the figure for `Cc1ccc(S(=O)(=O)NC(=O)NN2CC3CCC[C@@H]3C2)cc1` (stereo in doubt) [Gliclazide] is 9.52%; for `COC1=CC(=O)C[C@@H](C)[C@]12Oc1c(Cl)c(OC)cc(OC)c1C2=O` [Griseofulvin] it is 0%; for `CCC(=O)O[C@@H]1CC(=O)O[C@H](C)C/C=C/C=C/[C@H](O)[C@H](C)C[C@H](CC=O)[C@H](O[C@@H]2O[C@H](C)[C@@H](O[C@H]3C[C@@](C)(O)[C@@H](OC(=O)CC)[C@H](C)O3)[C@H](N(C)C)[C@H]2O)[C@H]1OC` [Midecamycin] it is 5.18%.
Same read-out and setting: the same measure for `N=C(N)NC(=O)Cc1c(Cl)cccc1Cl` [Guanfacine Hydrochloride]: 0%.
The same measure, in the same setting: the same measure for `CCOCCn1c(C2CCN(CCc3ccc(C(C)(C)C(=O)O)cc3)CC2)nc2ccccc21` [Bilastine]: 0%.
On to `CC(C)(C)C(=O)C(Oc1ccc(Cl)cc1)n1ccnc1` (centres unmarked) [Climbazole], for which the inhibition at 100 µM was determined as 18.5%.
Still for that read-out and setting: the same measure for `CN(C)CCC=C1c2ccccc2C=Cc2ccccc21` [Cyclobenzaprine HCl]: 3.24%.
`CCC(=O)O[C@]1(C(=O)CCl)[C@@H](C)C[C@H]2[C@@H]3CCC4=CC(=O)C=C[C@]4(C)[C@@]3(F)[C@@H](O)C[C@@]21C` [Clobetasol propionate]: the inhibition at 100 µM was found to be 9.68%.
Take `CCN(CC)CCOCCOC(=O)C(CC)(CC)c1ccccc1` [Oxeladin Citrate]: the inhibition at 100 µM is 0.462%.
Same read-out and setting: the same measure for `CCCCC(O)c1ccccc1` (centres unmarked) [Fenipentol]: 4.29%; for `CCC1(C)CC(=O)NC(=O)C1` [Bemegride]: 0%.
Same read-out and setting: the figure for `COc1ccc(C(=O)c2ccccc2O)c(O)c1` [2,2′-Dihydroxy-4-methoxybenzophenone] is 8.7%; for `OC(c1ccccc1)(c1ccccc1)C12CC[N+](CCOCc3ccccc3)(CC1)CC2` [Umeclidinium bromide] it is 0%.
`COc1cc2nc(N3CCN(C(=O)C4COc5ccccc5O4)CC3)nc(N)c2cc1OC` (centres unmarked) [Doxazosin Mesylate]: the inhibition at 100 µM was found to be 14.6%.
On the same count and under the same terms, the same measure for `C=CC[C@]1(O)CC[C@H]2[C@@H]3CCC4=CC(=O)CCC4=C3C=C[C@@]21C` [Altrenogest]: 0%; for `O=C(CCCN1CCN(c2ccccn2)CC1)c1ccc(F)cc1` [Azaperone]: 22.5%.
As to `Cc1ccccc1-c1cc(N2CCN(C)CC2)ncc1N(C)C(=O)C(C)(C)c1cc(C(F)(F)F)cc(C(F)(F)F)c1` [Netupitant], the inhibition at 100 µM amounted to 6.47%.
On the same count and under the same terms, the same measure for `CC1=C(/C=C/C(C)=C/C=C/C(C)=C/CO)C(C)(C)CCC1` [Vitamin A]: 2.61%; for `N#CC(c1ccc(Cl)cc1)c1c(Cl)cc(-n2ncc(=O)[nH]c2=O)cc1Cl` (centres unmarked) [Diclazuril]: 0%.
The same measure, in the same setting: the same measure for `CCNC1(c2cccs2)CCCCC1=O` (centres unmarked) [Tiletamine Hydrochloride]: 0%; for `Cc1ccccc1N1CCN(CCc2nnc3n2CCCC3)CC1` [Dapiprazole Hydrochloride]: 12.7%.
With `CCOc1ccc(NC(C)=O)cc1` [Phenacetin], the inhibition at 100 µM turned out to be 11.4%.
Same read-out and setting: the figure for `CN(C)N(C)C(=O)[C@@]1(Cc2ccccc2)CCCN(C(=O)[C@@H](Cc2c[nH]c3ccccc23)NC(=O)C(C)(C)N)C1` [Anamorelin] is 1.6%; for `COc1ccc(CNc2nc(N3CCC[C@H]3CO)ncc2C(=O)NCc2ncccn2)cc1Cl` [Avanafil] it is 0%; for `CCN[C@H]1CN(CCCOC)S(=O)(=O)c2sc(S(N)(=O)=O)cc21` [Brinzolamide] it is 0%.
Same read-out and setting: the figure for `CC(=O)Oc1cccc2c1C(=O)c1c(OC(C)=O)cc(C(=O)O)cc1C2=O` [Diacerein] is 3.21%; for `C[C@]1(Cn2ccnn2)[C@H](C(=O)O)N2C(=O)C[C@H]2S1(=O)=O` [Tazobactam] it is 6.81%; for `CC[C@@H]1/C=C(\C)C[C@H](C)C[C@H](OC)[C@H]2O[C@@](O)(C(=O)C(=O)N3CCCC[C@H]3C(=O)O[C@H](/C(C)=C/[C@@H]3CC[C@H](Cl)[C@H](OC)C3)[C@H](C)[C@@H](O)CC1=O)[C@H](C)C[C@@H]2OC` [Pimecrolimus] it is 25.5%.
